Measurements as given in patent publication US8871753B2, “Macrocyclic compounds and their use as kinase inhibitors” (Incyte Corporation, priority 2008, dated 2014).
Where a name gives a salt, the structure may show the parent alone. Read-outs that look alike come from different tables or passages of the source.

What was measured:
Type in all cases: biochemical
TYK2 = TYK2 (Homo sapiens, UniProt P29597); assay: TYK2 kinase inhibition (Table A1)
[1] = molecular target: T1, human JAK1 (a.a. 837-1142) (Homo sapiens, UniProt P23458); assay: In vitro JAK kinase assay (HTRF, phosphorylation of a biotinylated peptide), JAK1; details: read-out: JAK1 IC50
T1 construct: human JAK1 (a.a. 837-1142); His tag (N); made in house; host or cells: insect cells (baculovirus)
Outline: (§1)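 Phosphorylation of a biotinylated peptide by the JAK kinase domain, detected by HTRF with Eu-Py20 and SA-APC. ATP was 90 μM for JAK1, 30 μM for JAK2 and 3 μM for JAK3. Reactions ran 1 h at room temperature and were stopped with EDTA, followed by 40 min antibody binding.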

[2] = molecular target: T2, Recombinant Human Anaplastic Lymphoma Kinase (Homo sapiens, UniProt Q9UM73); assay: ALK HTRF kinase assay
T2 construct: purchased Invitrogen, Carlsbad, Calif
Outline: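 Recombinant human ALK with biotinylated peptide substrate; phosphorylation detected by HTRF using Eu-labelled anti-phosphotyrosine antibody and streptavidin-allophycocyanin. IC50 from a sigmoidal fit with Hill slope.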

[3] = molecular target: T3, human JAK2 (a.a. 828-1132) (Homo sapiens, UniProt O60674); assay: In vitro JAK kinase assay (HTRF, phosphorylation of a biotinylated peptide), JAK2
T3 construct: JAK2 (a.a. 828-1132); His tag (N); made in house; host or cells: insect cells (baculovirus)
Outline: as §1

[4] = molecular target: T4, human JAK3 (a.a. 781-1124) (Homo sapiens, UniProt P52333); assay: In vitro JAK kinase assay (HTRF, phosphorylation of a biotinylated peptide), JAK3
T4 construct: JAK3 (a.a. 781-1124); His tag (N); made in house; host or cells: insect cells (baculovirus)
Outline: as §1

[5] = method AA1 (90 μM ATP) or AA2 (1000 μM ATP), not stated per value
[6] = compound at 500 nM or 1 mM, 90 μM ATP
[7] = method AA1 (30 μM ATP) or AA2 (1000 μM ATP), not stated per value
[8] = method AA1 (3 μM ATP) or AA2 (1000 μM ATP), not stated per value
[9] = compound at a concentration of 500 nM or 1 mM (not specified), cells shown as percentage
[10] = Table B1, cells without percent sign

T3 sequence (O60674 828-1132): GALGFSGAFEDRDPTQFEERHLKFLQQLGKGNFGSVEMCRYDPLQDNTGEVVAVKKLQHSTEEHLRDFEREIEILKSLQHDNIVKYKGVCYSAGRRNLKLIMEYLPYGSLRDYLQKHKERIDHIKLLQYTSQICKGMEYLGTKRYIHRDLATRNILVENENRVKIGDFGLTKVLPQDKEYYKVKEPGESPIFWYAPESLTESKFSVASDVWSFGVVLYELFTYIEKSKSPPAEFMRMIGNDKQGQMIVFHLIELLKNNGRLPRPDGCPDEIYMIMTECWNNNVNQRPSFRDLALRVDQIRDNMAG
T1 sequence (P23458 849-1154): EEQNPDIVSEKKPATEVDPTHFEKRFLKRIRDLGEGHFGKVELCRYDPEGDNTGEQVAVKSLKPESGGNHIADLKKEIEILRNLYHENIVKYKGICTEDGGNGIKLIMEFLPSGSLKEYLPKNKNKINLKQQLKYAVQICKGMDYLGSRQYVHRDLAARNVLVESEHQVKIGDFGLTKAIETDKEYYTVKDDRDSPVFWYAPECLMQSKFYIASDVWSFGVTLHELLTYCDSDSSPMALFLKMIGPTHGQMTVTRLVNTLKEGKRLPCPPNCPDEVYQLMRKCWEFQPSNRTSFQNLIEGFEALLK
T4 sequence (P52333 781-1124): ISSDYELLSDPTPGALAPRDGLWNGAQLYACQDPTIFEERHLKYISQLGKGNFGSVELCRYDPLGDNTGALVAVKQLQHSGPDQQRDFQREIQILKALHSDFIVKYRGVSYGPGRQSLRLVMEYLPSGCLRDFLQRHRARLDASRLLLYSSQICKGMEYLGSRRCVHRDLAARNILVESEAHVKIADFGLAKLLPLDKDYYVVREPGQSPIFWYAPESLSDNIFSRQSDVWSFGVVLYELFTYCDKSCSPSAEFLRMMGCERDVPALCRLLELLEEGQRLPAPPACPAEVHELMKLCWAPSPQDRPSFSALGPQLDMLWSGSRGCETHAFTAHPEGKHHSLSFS
T2 sequence (Q9UM73 19-1620): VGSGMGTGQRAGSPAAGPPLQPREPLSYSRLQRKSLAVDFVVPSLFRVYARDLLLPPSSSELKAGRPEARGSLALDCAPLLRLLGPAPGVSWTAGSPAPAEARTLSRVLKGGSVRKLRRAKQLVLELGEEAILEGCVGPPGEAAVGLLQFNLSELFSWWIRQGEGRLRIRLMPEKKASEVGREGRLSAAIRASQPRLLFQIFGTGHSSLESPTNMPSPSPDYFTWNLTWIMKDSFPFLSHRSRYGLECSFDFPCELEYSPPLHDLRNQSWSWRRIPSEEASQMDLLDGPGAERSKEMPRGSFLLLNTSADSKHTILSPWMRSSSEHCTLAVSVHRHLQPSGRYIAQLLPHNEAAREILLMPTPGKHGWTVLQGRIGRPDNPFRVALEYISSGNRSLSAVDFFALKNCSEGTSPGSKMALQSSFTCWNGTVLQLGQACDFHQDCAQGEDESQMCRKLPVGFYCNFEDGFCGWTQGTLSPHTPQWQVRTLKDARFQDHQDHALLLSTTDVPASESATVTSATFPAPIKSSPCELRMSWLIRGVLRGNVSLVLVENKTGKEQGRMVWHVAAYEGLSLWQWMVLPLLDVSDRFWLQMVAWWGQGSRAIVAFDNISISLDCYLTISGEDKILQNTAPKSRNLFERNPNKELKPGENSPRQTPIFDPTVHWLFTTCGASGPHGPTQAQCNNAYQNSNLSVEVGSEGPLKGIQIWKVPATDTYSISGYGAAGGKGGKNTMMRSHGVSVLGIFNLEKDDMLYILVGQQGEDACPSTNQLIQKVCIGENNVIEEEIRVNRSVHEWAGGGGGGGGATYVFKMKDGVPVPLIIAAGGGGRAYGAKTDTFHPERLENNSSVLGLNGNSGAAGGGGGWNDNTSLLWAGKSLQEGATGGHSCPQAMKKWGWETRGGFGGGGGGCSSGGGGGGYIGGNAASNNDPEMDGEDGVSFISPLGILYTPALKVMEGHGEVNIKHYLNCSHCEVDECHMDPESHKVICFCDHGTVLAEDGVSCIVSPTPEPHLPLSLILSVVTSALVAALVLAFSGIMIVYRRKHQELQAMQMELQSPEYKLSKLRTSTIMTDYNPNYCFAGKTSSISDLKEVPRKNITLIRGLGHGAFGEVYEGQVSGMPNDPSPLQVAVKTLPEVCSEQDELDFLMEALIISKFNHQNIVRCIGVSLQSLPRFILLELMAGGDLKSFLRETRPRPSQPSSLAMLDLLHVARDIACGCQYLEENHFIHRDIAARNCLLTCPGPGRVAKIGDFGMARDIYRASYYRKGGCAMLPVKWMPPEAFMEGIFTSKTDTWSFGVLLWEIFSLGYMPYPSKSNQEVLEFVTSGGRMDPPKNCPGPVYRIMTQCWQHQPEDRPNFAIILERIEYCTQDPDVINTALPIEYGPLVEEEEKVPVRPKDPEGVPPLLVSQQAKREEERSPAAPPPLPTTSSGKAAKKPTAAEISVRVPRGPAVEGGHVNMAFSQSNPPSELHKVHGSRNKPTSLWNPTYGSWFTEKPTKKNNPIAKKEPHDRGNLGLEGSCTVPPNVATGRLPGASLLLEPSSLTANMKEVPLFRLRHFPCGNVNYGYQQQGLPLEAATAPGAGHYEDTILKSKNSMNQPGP
TYK2, sequence (P29597 whole entry): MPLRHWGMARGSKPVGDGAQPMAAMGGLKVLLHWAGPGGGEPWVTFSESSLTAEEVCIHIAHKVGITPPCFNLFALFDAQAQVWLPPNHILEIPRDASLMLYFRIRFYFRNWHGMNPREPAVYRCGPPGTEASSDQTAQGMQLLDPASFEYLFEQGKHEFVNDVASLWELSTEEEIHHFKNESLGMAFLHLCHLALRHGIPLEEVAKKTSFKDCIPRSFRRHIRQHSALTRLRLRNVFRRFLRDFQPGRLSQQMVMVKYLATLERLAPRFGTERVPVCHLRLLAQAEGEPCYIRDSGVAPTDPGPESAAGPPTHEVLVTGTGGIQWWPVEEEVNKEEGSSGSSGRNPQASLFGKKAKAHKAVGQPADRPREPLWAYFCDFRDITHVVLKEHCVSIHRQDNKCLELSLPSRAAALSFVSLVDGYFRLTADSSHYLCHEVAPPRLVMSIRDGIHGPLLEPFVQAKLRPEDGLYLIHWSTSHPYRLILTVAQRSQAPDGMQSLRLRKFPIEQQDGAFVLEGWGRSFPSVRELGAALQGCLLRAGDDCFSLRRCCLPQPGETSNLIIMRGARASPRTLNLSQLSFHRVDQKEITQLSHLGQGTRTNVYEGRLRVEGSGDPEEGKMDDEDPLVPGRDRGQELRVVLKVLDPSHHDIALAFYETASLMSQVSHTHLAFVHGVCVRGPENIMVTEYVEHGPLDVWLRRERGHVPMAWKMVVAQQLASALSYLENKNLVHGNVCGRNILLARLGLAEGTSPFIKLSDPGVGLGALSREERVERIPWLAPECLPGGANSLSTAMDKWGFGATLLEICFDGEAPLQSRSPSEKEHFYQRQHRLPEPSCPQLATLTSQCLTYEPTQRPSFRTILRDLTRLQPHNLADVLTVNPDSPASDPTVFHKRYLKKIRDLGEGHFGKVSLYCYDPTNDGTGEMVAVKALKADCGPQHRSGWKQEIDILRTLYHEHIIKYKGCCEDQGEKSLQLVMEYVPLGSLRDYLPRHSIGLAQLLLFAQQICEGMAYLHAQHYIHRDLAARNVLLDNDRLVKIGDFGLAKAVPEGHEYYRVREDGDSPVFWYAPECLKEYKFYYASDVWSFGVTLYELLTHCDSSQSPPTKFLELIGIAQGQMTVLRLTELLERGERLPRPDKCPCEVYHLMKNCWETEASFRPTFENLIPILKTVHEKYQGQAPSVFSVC

SMILES | IC50 (TYK2) | IC50 [1, 5] | ALK % of inhibition at a concentration of 500 nM or 1 mM [2, 6] | IC50 [3, 7] | IC50 [4, 8] | IC50 (TYK2; Table B1) | IC50 ([1]; Table B1) | ALK % of inhibition at a concentration of 500 nM or 1 mM [2, 9] | IC50 ([3]; Table B1) | IC50 ([4]; Table B1) | further results
O=C(CC1CCN(C(=O)c2ccno2)CC1)Nc1ccc2cc1CCc1cncc(c1)Nc1ncc(Cl)c(n1)N2 [Example A128, N-[6-Chloro-2,4,8,18,22-pentaazatetracyclo[14.3.1.1(3,7).1(9,13)]docosa-1(20),3(22),4,6,9(21),10,12,16,18-nonaen-12-yl]-2-[1-(isoxazol-5-ylcarbonyl)piperidin-4-yl]acetamide bis(trifluoroacetate)] | 1.6 nM | 0.6 nM | 34% | 4.1 nM | 64 nM |  |  |  |  |  | 
NS(=O)(=O)N1CCCC(C(=O)Nc2ccc3cc2CCc2cccc(c2)Nc2ncc(Cl)c(n2)N3)C1 (centres unmarked) [Example A73, 1-(Aminosulfonyl)-N-[6-chloro-2,4,8,22-tetraazatetracyclo[14.3.1.1(3,7).1(9,13)]docosa-1(20),3(22),4,6,9(21),10,12,16,18-nonaen-12-yl]piperidine-3-carboxamide trifluoroacetate] | 8 nM | 10 nM | 49% | 0.7 nM | 3 nM |  |  |  |  |  | 
O=C(Nc1ccc2cc1CCc1cccc(c1)Nc1ncc(Cl)c(n1)N2)c1ccc2occc2c1 [Example B79, N-[6-Chloro-2,4,8,22-tetraazatetracyclo[14.3.1.1(3,7).1(9,13)]docosa-1(20), 3(22),4,6,9(21),10,12,16,18-nonaen-12-yl]-1-benzofuran-5-carboxamide trifluoroacetate] |  |  |  |  |  | 1.7 nM | 0.83 nM | 91% | 0.58 nM | 2.8 nM | 
Cc1cc(N2CCC(CC(=O)Nc3ccc4cc3CCc3cccc(c3)Nc3ncc(Cl)c(n3)N4)CC2)no1 [Example A248, N-[6-Chloro-2,4,8,22-tetraazatetracyclo[14.3.1.1(3,7).1(9,13)]docosa-1(20),3(22),4,6,9(21),10,12,16,18-nonaen-12-yl]-2-[1-(5-methylisoxazol-3-yl)piperidin-4-yl]acetamide trifluoroacetate] | 82 nM | 8.7 nM | 50% | 30 nM | > 200 nM |  |  |  |  |  | 
O=C(CC1CCN(c2nc3ccccc3s2)CC1)Nc1ccc2cc1CCc1cncc(c1)Nc1ncc(Cl)c(n1)N2 [Example A157, 2-[1-(1,3-Benzothiazol-2-yl)piperidin-4-yl]-N-[6-chloro-2,4,8,18,22-pentaazatetracyclo[14.3.1.1(3,7).1(9,13)]docosa-1(20),3(22),4,6,9(21),10,12,16,18-nonaen-12-yl]acetamide tris(trifluoroacetate)] | 617 nM | 2.6 nM | 15% | 102 nM | > 10000 nM |  |  |  |  |  | 
O=C(Nc1ccc2cc1CCc1cncc(c1)Nc1ncc(Cl)c(n1)N2)N1CCC(S(=O)(=O)c2ccccc2)C1 (centres unmarked) [Example B321, N-[6-Chloro-2,4,8,18,22-pentaazatetracyclo[14.3.1.1(3,7).1(9,13)]docosa-1(20),3(22),4,6,9(21),10,12,16,18-nonaen-12-yl]-3-(phenylsulfonyl)pyrrolidine-1-carboxamide bis(trifluoroacetate)] |  |  |  |  |  | > 400 nM | 75 nM |  | 371 nM | > 400 nM | ALK % of inhibition at a concentration of 500 nM or 1 mM ([2]; percentage inhibition of the example compound at a concentration of 500 nM or 1 mM (not specified which)): 36%
O=C(c1coc(Nc2ccc3cc2CCc2cccc(c2)Nc2ncc(Cl)c(n2)N3)n1)N1CCN2CCCC2C1 (centres unmarked) [Example B296, 6-Chloro-N-[4-(hexahydropyrrolo[1,2-a]pyrazin-2(1H)-ylcarbonyl)-2,3-oxazol-2-yl]-2,4,8,22-tetraazatetracyclo[14.3.1.1(3,7).1(9,13)]docosa-1(20),3(22),4,6,9(21),10,12,16,18-nonaen-12-amine bis(trifluoroacetate)] |  |  |  |  |  | 48 nM | 8.3 nM | 33% | 26 nM | > 200 nM | 
NS(=O)(=O)N1CCC(NC(=O)Nc2ccc3cc2CCc2cccc(c2)Nc2ncc(Cl)c(n2)N3)CC1 [Example B183, 4-[({[6-Chloro-2,4,8,22-tetraazatetracyclo[14.3.1.1(3,7).1(9,13)]docosa-1(20),3(22),4,6,9(21),10,12,16,18-nonaen-12-yl]amino}carbonyl)amino]piperidine-1-sulfonamide trifluoroacetate] |  |  |  |  |  | 7 nM | 2.1 nM | 26% | 1 nM | 14 nM | 
Clc1cnc2nc1Nc1cccc(c1)SSc1cccc(c1)N2 [Example D12, 6-Chloro-14,15-dithia-2,4,8,22-tetraazatetracyclo[14.3.1.1(3,7).1(9,13)]docosa-1(20),3(22),4,6,9(21),10,12,16,18-nonaene trifluoroacetate] |  |  |  |  |  |  |  |  |  |  | IC50 (TYK2; Table D1): 324 nM; IC50 ([1]; Table D1): 178 nM; IC50 ([2]; Table D1, 90 μM ATP): > 10000 nM; IC50 ([3]; Table D1): 290 nM; IC50 ([4]; Table D1): 369 nM
O=C(CC1CCN(C(=O)c2cccnc2)CC1)Nc1ccc2cc1CCc1cncc(c1)Nc1ncc(Cl)c(n1)N2 [Example A188, N-[6-Chloro-2,4,8,18,22-pentaazatetracyclo[14.3.1.1(3,7).1(9,13)]docosa-1(20),3(22),4,6,9(21),10,12,16,18-nonaen-12-yl]-2-[1-(pyridin-3-ylcarbonyl)piperidin-4-yl]acetamide tris(trifluoroacetate)] | > 200 nM | 34 nM | 26% | > 200 nM | > 200 nM |  |  |  |  |  | 
O=C(Nc1cc2cc(c1)Nc1nc(ncc1Cl)Nc1cccc(c1)CC2)c1nccs1 [Example B209, N-[6-Chloro-2,4,8,22-tetraazatetracyclo[14.3.1.1(3,7).1(9,13)]docosa-1(20),3(22),4,6,9(21),10,12,16,18-nonaen-11-yl]-1,3-thiazole-2-carboxamide trifluoroacetate] |  |  |  |  |  | 110 nM | 64 nM |  | 51 nM | 140 nM | IC50 [2, 10]: > 1000 nM
O=C(CC1CCN(C(=O)Nc2ccccc2)CC1)Nc1ccc2cc1CCc1cncc(c1)Nc1ncc(Cl)c(n1)N2 [Example A77, 4-(2-{[6-Chloro-2,4,8,18,22-pentaazatetracyclo[14.3.1.1(3,7).1(9,13)]docosa-1(20),3(22),4,6,9(21),10,12,16,18-nonaen-12-yl]amino}-2-oxoethyl)-N-phenylpiperidine-1-carboxamide bis(trifluoroacetate)] | 4 nM | 0.6 nM | 35% | 0.7 nM | 35 nM |  |  |  |  |  | 
O=C(Nc1ccc2cc1CCc1cncc(c1)Nc1ncc(Cl)c(n1)N2)N[C@H]1CCN(c2nc3cccnc3o2)C1 [Example B275, N-[6-Chloro-2,4,8,18,22-pentaazatetracyclo[14.3.1.1(3,7).1(9,13)]docosa-1(20),3(22),4,6,9(21),10,12,16,18-nonaen-12-yl]-N′-[(3S)-1-[1,3]oxazolo[5,4-b]pyridin-2-ylpyrrolidin-3-yl]urea tris(trifluoroacetate)] |  |  |  |  |  | 348 nM | 14 nM | 9.8% | 129 nM | > 10000 nM | 
Cc1ccnc(Nc2ccc3cc2CCc2cccc(c2)Nc2ncc(Cl)c(n2)N3)n1 [Example B276, 6-Chloro-N-(4-methylpyrimidin-2-yl)-2,4,8,22-tetraazatetracyclo[14.3.1.1(3,7).1(9,13)]docosa-1(20),3(22),4,6,9(21),10,12,16,18-nonaen-12-amine bis(trifluoroacetate)] |  |  |  |  |  | 34 nM | 6.5 nM | 22% | 11 nM | 1170 nM | 
O=C(Nc1ccc2cc1CCc1cccc(c1)Nc1ncc(Cl)c(n1)N2)c1cccc(Cl)c1 [Example B42, 3-Chloro-N-[6-chloro-2,4,8,22-tetraazatetracyclo[14.3.1.1(3,7).1(9,13)]docosa-1(20),3(22),4,6,9(21),10,12,16,18-nonaen-12-yl]benzamide hydrochloride] |  |  |  |  |  | 3.9 nM | 1.7 nM |  | 0.75 nM | 7 nM | IC50 [2, 10]: 310 nM
CC(=O)N1CC[C@@H](C(=O)Nc2ccc3cc2CCc2cccc(c2)Nc2ncc(Cl)c(n2)N3)C1 [Example A51, (3R)-1-Acetyl-N-[6-chloro-2,4,8,22-tetraazatetracyclo[14.3.1.1(3,7).1(9,13)]docosa-1(20),3(22),4,6,9(21),10,12,16,18-nonaen-12-yl]pyrrolidine-3-carboxamide trifluoroacetate] | 21 nM | 13 nM | 30% | 5 nM | 10 nM |  |  |  |  |  | 
